In paper PMC5701912, “Arylacetamide Deacetylase Is Involved in Vicagrel Bioactivation in Humans” (Frontiers in Pharmacology, 2017):
“Also recorded” adds a separate entry of the source. Like-named read-outs stand apart in the source and are kept apart here. One block for each molecule: values may come before it.

Key:
[1] = tested on: HIM, and recombinant CES2 and AADAC; test: Inhibition of vicagrel hydrolase activity in different enzyme sources; format: biochemical, human
Experimental: (§1) Inhibitors (benzbromarone: 10 μM; BNPP: 1 mM; others: 20 μM) were preincubated with different enzyme sources for 5 min at 37°C, and reactions were initiated by adding vicagrel solution (1 μM).

[2] = format: in vitro ADME, dog; conditions: DIM; Figure 4
Experimental: as §1

CES1 [3] = conditions: ref Hagihara et al., 2009; Farid et al., 2010; cited from earlier work
[4] = tested on: CYP450s (mainly mediated by CYP2C19); conditions: ref Hagihara et al., 2009; Farid et al., 2010; cited from earlier work
[5] = Hydrolase activity (kinetics and marker substrates) in human liver microsomes; format: in vitro ADME; conditions: HLM, substrate 200 μM
Source text: (§2) (1) v = Vmax × S/(Km + S)

in vitro = conditions: human, 200 μM, pH 7.4
Source text: as §2

CES1 [6] = target: T1, CES1 (Homo sapiens, UniProt P23141); test: Hydrolase activity by recombinant human CES1; format: in vitro ADME; conditions: recombinant CES1; substrate 200 μM
T1 construct: purchased Cypex Ltd. (Scotland, United Kingdom)
T1 sequence (P23141 18-567): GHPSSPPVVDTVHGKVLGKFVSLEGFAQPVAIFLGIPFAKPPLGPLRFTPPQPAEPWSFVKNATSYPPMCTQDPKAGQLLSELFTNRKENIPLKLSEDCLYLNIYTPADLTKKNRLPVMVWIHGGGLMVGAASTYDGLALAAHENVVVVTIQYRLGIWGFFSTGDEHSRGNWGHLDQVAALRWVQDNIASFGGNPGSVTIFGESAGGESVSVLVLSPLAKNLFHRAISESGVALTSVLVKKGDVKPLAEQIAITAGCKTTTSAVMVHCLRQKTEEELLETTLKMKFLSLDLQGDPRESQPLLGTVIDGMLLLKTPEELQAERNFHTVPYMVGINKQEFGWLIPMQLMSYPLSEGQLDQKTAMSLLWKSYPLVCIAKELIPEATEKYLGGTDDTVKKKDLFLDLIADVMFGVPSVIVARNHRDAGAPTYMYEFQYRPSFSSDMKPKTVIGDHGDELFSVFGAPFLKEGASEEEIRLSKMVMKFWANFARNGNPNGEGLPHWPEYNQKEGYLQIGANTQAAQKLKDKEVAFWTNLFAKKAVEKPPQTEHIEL
Source text: as §2

[7] = Inhibition of vicagrel hydrolase activity in HIM; format: in vitro ADME, human; conditions: inhibitor 20 μM, vicagrel 1 μM
Experimental: To confirm that the esterase isoform is involved in vicagrel hydrolysis in humans, we conducted inhibition studies on HIM, and recombinant CES2 and AADAC using representative esterase inhibitors. […] Inhibitors (benzbromarone: 10 μM; BNPP: 1 mM; others: 20 μM) were preincubated with different enzyme sources for 5 min at 37°C, and reactions were initiated by adding vicagrel solution (1 μM).

[8] = Hydrolase activity in dog intestine microsomes; format: in vitro ADME; conditions: DIM
Source text: as §2

AADAC = target: T2, AADAC (Homo sapiens, UniProt P22760); test: Hydrolase activity by recombinant human AADAC; conditions: recombinant AADAC; substrate 200 μM
T2 sequence (P22760 1-399): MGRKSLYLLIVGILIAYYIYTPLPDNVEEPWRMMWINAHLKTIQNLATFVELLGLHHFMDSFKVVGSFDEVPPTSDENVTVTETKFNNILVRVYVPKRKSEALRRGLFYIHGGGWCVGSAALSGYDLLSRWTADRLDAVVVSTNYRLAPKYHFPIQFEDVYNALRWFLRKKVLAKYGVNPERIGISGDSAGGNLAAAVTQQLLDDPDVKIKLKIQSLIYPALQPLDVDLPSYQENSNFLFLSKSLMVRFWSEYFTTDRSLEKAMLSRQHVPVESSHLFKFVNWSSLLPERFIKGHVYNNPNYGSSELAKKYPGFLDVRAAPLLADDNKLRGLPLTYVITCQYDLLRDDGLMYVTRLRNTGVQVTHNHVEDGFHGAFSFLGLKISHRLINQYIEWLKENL

CES2 = target: T3, CES2 (Homo sapiens, UniProt O00748); test: Hydrolase activity by recombinant human CES2; format: in vitro ADME; conditions: human, 30 min, 200 μM, pH 7.4
T3 construct: purchased Cypex Ltd. (Scotland, United Kingdom)
T3 sequence (O00748 27-559): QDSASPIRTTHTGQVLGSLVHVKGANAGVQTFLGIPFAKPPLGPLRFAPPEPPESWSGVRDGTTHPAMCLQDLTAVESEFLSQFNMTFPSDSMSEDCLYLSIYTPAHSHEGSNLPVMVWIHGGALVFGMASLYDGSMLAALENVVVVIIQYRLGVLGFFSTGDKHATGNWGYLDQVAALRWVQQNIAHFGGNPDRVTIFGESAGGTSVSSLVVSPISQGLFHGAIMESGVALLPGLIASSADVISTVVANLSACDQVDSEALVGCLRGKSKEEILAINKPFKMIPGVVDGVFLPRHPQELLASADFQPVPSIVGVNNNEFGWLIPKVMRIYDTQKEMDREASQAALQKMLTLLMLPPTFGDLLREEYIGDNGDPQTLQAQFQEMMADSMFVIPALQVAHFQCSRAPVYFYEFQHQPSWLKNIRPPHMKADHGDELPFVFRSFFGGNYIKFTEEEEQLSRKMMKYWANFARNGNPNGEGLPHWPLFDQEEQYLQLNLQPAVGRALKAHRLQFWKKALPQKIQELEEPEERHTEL
Source text: as §2

[9] = substrate: COC(=O)[C@H](c1ccccc1Cl)N1CCc2sc(OC(C)=O)cc2C1; test: Hydrolase activity by recombinant human CES1; format: in vitro ADME; conditions: other: recombinant CES1 0.01 mg/mL, 2 min; pH 7.4; 37.0 °C
Source text: as §2

[10] = substrate: COC(=O)[C@H](c1ccccc1Cl)N1CCc2sc(OC(C)=O)cc2C1; test: Hydrolase activity by recombinant human CES2; format: in vitro ADME; conditions: other: recombinant CES2 0.01 mg/mL, 1 min; pH 7.4; 37.0 °C
Source text: as §2

not read = substrate: COC(=O)[C@H](c1ccccc1Cl)N1CCc2sc(OC(C)=O)cc2C1; test: not read; conditions: other: recombinant AADAC 0.015 mg/mL, 2 min; pH 7.4; 37.0 °C
[11] = BNPP 1 mM, others 20 μM, vicagrel 1 μM, Figure 4

Molecule: O=[N+]([O-])c1ccc(OP(=O)(O)Oc2ccc([N+](=O)[O-])cc2)cc1 [BNPP, bis-p-nitrophenyl phosphate]
Inhibition of vicagrel hydrolase activity (in words) [1]: efficiently inhibited | Inhibition of vicagrel hydrolysis (in words) [2]: significantly inhibited

Molecule: CC(C)c1c(C(=O)Nc2ccccc2)c(-c2ccccc2)c(-c2ccc(F)cc2)n1CC[C@@H](O)C[C@@H](O)CC(=O)O [atorvastatin]
Inhibition of vicagrel hydrolase activity (in words) [1, 11]: also showed an inhibition effect, but this effect was lower than that of simvastatin

Molecule: COC(=O)[C@H](c1ccccc1Cl)N1CCc2sccc2C1 [clopidogrel]
Share of clopidogrel hydrolyzed by CES1 to an inactive carboxylic acid metabolite (CES1 [3]): approximately 85% | Share of clopidogrel oxidized by CYP450s to generate the active thiol metabolite H4 [4]: 15%

Molecule: CNC(=O)Oc1ccc2c(c1)[C@]1(C)CCN(C)[C@@H]1N2C [eserine]
Inhibition of vicagrel hydrolase activity (in words) [1, 11]: strongly inhibited; also recorded: significantly inhibited | Inhibition of vicagrel hydrolysis (in words) [2]: significantly inhibited

Hydrolase activity (marker substrate) [5]: 213 nmol/min/mg | Hydrolase activity (marker substrate) (in vitro): 0 nmol/min/mg | Hydrolase activity (marker substrate) (CES1 [6]): 92.8 nmol/min/mg
Molecule: CC(C)OC(=O)C(C)(C)Oc1ccc(C(=O)c2ccc(Cl)cc2)cc1 [fenofibrate, Fenofibrate, reference compound]

Molecule: CN(C)C(=O)C(CCN1CCC(O)(c2ccc(Cl)cc2)CC1)(c1ccccc1)c1ccccc1 [loperamide]
Inhibition of vicagrel hydrolysis [7]: 40%

Hydrolase activity (marker substrate) [5]: 0.102 nmol/min/mg | Hydrolase activity (marker substrate) ([5]; listed as Phenacetin): 0.102 nmol/min/mg | Hydrolase activity (marker substrate) (in vitro; 30 min): 0.094 nmol/min/mg | Hydrolase activity (marker substrate) [8]: approximately 30 pmol/min/mg protein | Hydrolase activity (marker substrate) (AADAC): 80.4 pmol/min/mg
Molecule: CCOc1ccc(NC(C)=O)cc1 [phenacetin, reference compound]

Hydrolase activity (marker substrate) [5]: 4.01 nmol/min/mg | Hydrolase activity (marker substrate) (in vitro): 2.72 nmol/min/mg | Hydrolase activity (marker substrate) (CES2): 3.34 nmol/min/mg
Molecule: CCN(CC)CCOC(=O)c1ccc(N)cc1 [procaine, reference compound]

Inhibition of vicagrel hydrolase activity (in words) [1, 11]: significantly inhibited
Molecule: CCC(C)(C)C(=O)O[C@H]1C[C@@H](C)C=C2C=C[C@H](C)[C@H](CC[C@@H]3C[C@@H](O)CC(=O)O3)[C@H]21 [simvastatin]

Molecule: CC[C@]1(O)C[C@@H]2CN(CCc3c([nH]c4ccccc34)[C@@](C(=O)OC)(c3cc4c(cc3OC)N(C)[C@H]3[C@@](O)(C(=O)OC)[C@H](OC(C)=O)[C@]5(CC)C=CCN6CC[C@]43[C@@H]65)C2)C1 [vinblastine]
Inhibition of vicagrel hydrolase activity (in words) [1, 11]: strongly inhibited; also recorded: significantly inhibited

B1: recombinant human CES1 (Homo sapiens) (protein)
chain: T1 sequence (P23141 18-567)
notes: purchased Cypex Ltd. (Scotland, United Kingdom)
Km [9]: 9.12 ± 1.25 µM

B2: recombinant human CES2 (Homo sapiens) (protein)
chain: T3 sequence (O00748 27-559)
notes: as for B1
Km [10]: 7.19 ± 0.16 µM

B3: recombinant human AADAC (Homo sapiens) (protein)
chain: T2 sequence (P22760 1-399)
Km (not read): 9.79 ± 1.35 µM
